In article PMC13327620, “A Deep‐Red‐Absorbing Osmium(II) Complex as a Photosensitizer for Photodynamic Therapy Inducing Immunogenic Cell Death” (Angewandte Chemie (International Ed. in English), 2026):
Where two headings read alike, the source gives them in different places.

Legend:
IFN‐γ and IL‐17A = experiment: Cytokine assay (ELISA) in serum after vaccination; type: in vivo, BALB/c mice; conditions: day 7, compared to Control and Cisplatin groups
Description: (§1) Encouraged by the excellent performance of Os2 in inducing ICD both in vitro and in vivo, we decided to further evaluate the antitumor immune response following vaccination. A key feature of ICD is its ability to initiate antigen‐specific adaptive immune responses. To assess this, we measured the immune cell response in the spleens and the cytokine levels in the serum of mice 7 days after vaccination (Figures 6A and S28).
PerCp Cy5.5 (Biolegend, Catalog no.100217, cl one 17A2), anti -CD4- Kiravia 520 (Biolegend, Catalog no. 100477, clone GK1.5), anti-CD8a-BUV496 (Ther mo F i s h er […]
transcription factor staini ng, the cells were treat ed with True- Nuclear™ Transcription Factor Buffer Set (Biolegend, Catalog no. 424401) after surface staining an d re-stained with fluorescen ce-labeled anti-IFNγ-PE (Biolegend, Catalog no. 505807, clone XMG1.2), anti-FoxP3- BV421 (Biolegend, Catalog no.126419, clone MF-14) and Zombie NIR™Fixable Viability Kit( Biolegend,Catalog no.423105).
Serum samples were obt ained from the mice on day 7 after treatment. Cytokine was detected using ELISA kits according to the manufacturer ’s instructions: IFN-γ (Biolegend, Catalog no. 430807) and IL -17A ( Bi olegend, Catalog no.432507).
All the analysis data are given as mean ± SEM. […]

[1] = tested on: immune cells in the spleens; experiment: Flow cytometry analysis of immune cells in spleens after vaccination; type: in vivo, BALB/c mice; conditions: spleen, 7 days after vaccination
Description: as §1
The BALB/c female mice were randomly divided into 4 groups which were named as Control group, Cisplatin group, Ce6 group and Os2 group. CT26-luc cells were tre ated in vitro with 600 µM Cisplatin in the dark, 6.5 µ M Ce6 or 1.8 µM Os2 upon 740 nm LED light irradiation (60 min, 12.6 J cm-2) following the methods described above. […]
The BALB/c female mice were randomly divided into 4 groups with each group containing 3 mice, which were named as Control group, Cisplatin group, Ce6 group and Os2 group. […] For surfac e marker analysis, the cells were stained with fluorescence- l abeled anti-C D45-AF532 (Thermo Fisher Scientific Inc., Catalog no. 58- 0451- 80, clone 30-F 11 ), anti-CD3- […]
Serum samples were obt ained from the mice on day 7 after treatment. Cytokine was detected using ELISA kits according to the manufacturer ’s instructions: IFN-γ (Biolegend, Catalog no. 430807) and IL -17A ( Bi olegend, Catalog no.432507). […]

[2] = tested on: human glioblastoma cells (U-87 MG); experiment: Resazurin cell viability assay, (photo)cytotoxicity, normoxia; type: cell-based; conditions: for IC50: Homo sapiens
Description: (100 U ml−1), streptomycin (100 U ml−1), and 1% L-glutamine. […]
All cells were incubated at 37 °C in a humidified atmosphere with 5 % CO2.
Normoxia. The in vitro viability of cells exposed to the complexes was determined using a resazurin assay. C ells were seeded in 96-well plates at densities of 4,000 cells/well for CT26, MC A205 and U-87 MG cells, and 8,000 cells/well for MRC-5 and NIH/3T3 cells. A fter 24 h of growth at 37 °C wit h 5% CO2, the medium was replaced with fresh medium containing various concentrations of the compounds . Following a 4- h incubation in the dark, the medium was refres hed , and the plates were exposed to irradiation usinga LUM OS -BIO photoreactor (At las Photonics).N on- ir rad iated plates were similarly refr eshed with medium and kept in the dark for the same duration. After a 40- h r ecov ery period, a f reshly pr epar ed resazurin solution (0.2 mg/mL) was added to each well, and the plates were left in the dark for 4 h before analysis on a B i o Te k Cytation 5 Cell Imaging Multimode Reader (Agil ent Technologies). […]

## C=Cc1c(C)c2cc3nc(c(CC(=O)O)c4[nH]c(cc5nc(cc1[nH]2)C(C)=C5CC)c(C)c4C(=O)O)[C@@H](CCC(=O)O)[C@@H]3C [Ce6, chlorin e6]
IFN‐γ and IL‐17A
  IFN‐γ level in serum: significant increase
  IL‐17A level in serum: significant increase
[1]
  Activated CD8^+ T cells, times that of Control and Cisplatin groups: around twice higher
  Cytotoxic CD8^+ T cells, times higher than Control and Cisplatin groups: more than 10
[2]; 740 nm
  PI: 28
[2]; 770 nm
  PI: 8
[2]; dark, read-out: IC50 Dark
  IC50: 116 ± 6.99 µM
[2]; light or radiation study, 1 h, 740 nm, 1.12 mW/cm2, 60 min, 12.60 J/cm2, read-out: IC50 740 nm
  IC50: 4.15 ± 0.06 µM
[2]; light or radiation study, 2 h, 770 nm, 0.68 mW/cm2, 120 min, 15.30 J/cm2, read-out: IC50 770 nm
  IC50: 14 ± 3.14 µM
